In the OligoGym collection one finds target mRNA inhibition data, which are given here for 26 sequences.

“And” between values parts separate entries of the source, which are not always exact repeats. Identical values can stand only once. After the bases stand the sugars from the 5' end (letter, count) and the backbone: PS all phosphorothioate, else s phosphorothioate and o phosphodiester by linkage. Methylation of C is not given here. e = 2'-O-(2-methoxyethyl) (MOE); k = constrained ethyl (cEt); d = 2'-deoxy (DNA)

This series deals with SOD1. The settings on record: ASO.

“ACTACATCCAAGGGAAT (sugars e2 k2 d8 k2 e3, PS)” had a target mRNA inhibition (HepG2, 4 µM) of 42%.

With “GGTTCCGAGGACTGCAACGG (sugars e5 d10 e5, PS)”, the target mRNA inhibition (HepG2, 4 µM) was 35%.

Regarding “AGACATTTTAACTGAGT (sugars e2 k2 d9 k2 e2, PS)”, the target mRNA inhibition (HepG2, 5 µM) came to 53%.

In turn, “TTTTATTCACAGGCTTG (sugars e2 k2 d8 k2 e3, PS)” showed a target mRNA inhibition (HepG2, 5 µM) of 43%.

Consider “ATTCTGACAAGTTTAAT (sugars e3 k2 d7 k2 e3, PS)”, for which the target mRNA inhibition (HepG2, 3 µM) was determined as 9%.

For the sequence “AGGTACTTTAAAGCAACTCT (sugars e5 d10 e5, PS)”, where the note is “HepG2, 5 µM”, the target mRNA inhibition stood at 36%.

Regarding “GATACATTTCTACAGCT (sugars e2 k2 d8 k2 e3, PS)”, the target mRNA inhibition (HepG2, 4 µM) came out at 64%.

Under “HepG2, 3 µM”, “AAGGGAATGTTTATTGG (sugars e3 k2 d7 k2 e3, PS)” came in with a target mRNA inhibition of 2%.

For the setting “HepG2, 3 µM”, “ATTTCCACCTTTGCCCA (sugars e3 k2 d7 k2 e3, PS)” showed a target mRNA inhibition of 63%.

In turn, “TCATAATAAGTGCCATACAG (sugars e5 d10 e5, PS)” came in with a target mRNA inhibition (HepG2, 5 µM) of 0%.

“TACACCACAAGCCAAAC (sugars e2 k2 d8 k2 e3, PS)” displayed a target mRNA inhibition (HepG2, 4 µM) of 56%.

For the setting “HepG2, 4 µM”, “CTACGACGCAAACCAGCACC (sugars e5 d10 e5, PS)” yielded a target mRNA inhibition of 19%.

Take “CGTCGCCCTTCAGCACG (sugars e2 k2 d9 k2 e2, PS)”: the target mRNA inhibition (HepG2, 4 µM) came to 43%.

“CAGTTTCTCACTACAGG (sugars e2 k2 d8 k2 e3, PS)” had a target mRNA inhibition (HepG2, 5 µM) of 38%.

Turning to “ACCATCTTTGTCAGCAGTCA (sugars e5 d10 e5, PS)”, the target mRNA inhibition (HepG2, 5 µM) is 41% and 30%.

“CAGGATACATTTCTACAG (sugars e5 d8 e5, linkages s1 o3 s9 o2 s2)”: the target mRNA inhibition by setting is: (A431, 0.12 µM) 2%; (A431, 0.6 µM) 31%; (A431, 3 µM) 9%; (A431, 15 µM) 18%; (HepG2, 0.222 µM) 14%; (HepG2, 0.667 µM) 31%. Also, the target mRNA inhibition (HepG2, 2 µM) is 54% and the target mRNA inhibition (HepG2, 6 µM) amounted to 84%.

Turning to “ATTGGGCGATCCCAATT (sugars e3 k2 d7 k2 e3, PS)”, the target mRNA inhibition (HepG2, 3 µM) came to 19%.

In the case of “GGTTTTTATTCACAGGC (sugars e2 k2 d8 k2 e3, PS)”, the target mRNA inhibition (HepG2, 5 µM) is 38%.

With “GTGTTTAATGTTTATCA (sugars e2 k2 d9 k2 e2, linkages s1 o3 s9 o1 s2)”, the target mRNA inhibition was 22% (A431, 0.12 µM); 57% (A431, 0.6 µM); 73% (A431, 3 µM); 84% (A431, 15 µM); 58% (HepG2, 0.222 µM); 68% (HepG2, 0.667 µM). In addition, the target mRNA inhibition by setting is: (HepG2, 2 µM) 96%; (HepG2, 6 µM) 83%.

Where the note is “HepG2, 4 µM”, “AACCAGCACCCCGTCTCCGC (sugars e5 d10 e5, PS)” came in with a target mRNA inhibition of 11%.

“CAAACCAGCACCCCGTCTCC (sugars e5 d10 e5, PS)” displayed a target mRNA inhibition (HepG2, 4 µM) of 13%.

Consider “CAGTGTTTAATGTTTAT (sugars e2 k2 d9 k2 e2, PS)”, for which the target mRNA inhibition runs as follows: (HepG2, 0.1875 µM) 45%; (HepG2, 0.75 µM) 73%; (HepG2, 3 µM) 84%; (HepG2, 4 µM) 84%; (HepG2, 5 µM) 85%; (HepG2, 12 µM) 82% and 87%.

For the sequence “CAGGATACATTTCTACAGCT (sugars e5 d10 e5, linkages s1 o4 s10 o2 s2)”, the target mRNA inhibition was determined as 18% (A431, 0.062 µM); 28% (A431, 0.185 µM); 45% (A431, 0.556 µM); 70% (A431, 1.667 µM); 69% (A431, 5 µM); 81% (A431, 15 µM). In addition, the target mRNA inhibition is, setting by setting: (SH-SY5Y, 0.062 µM) 0%; (SH-SY5Y, 0.185 µM) 17%; (SH-SY5Y, 0.556 µM) 49%; (SH-SY5Y, 1.667 µM) 62%; (SH-SY5Y, 5 µM) 83%; (SH-SY5Y, 15 µM) 91%.

For “CTCCTGAGAGTGAGATCACA (sugars e5 d10 e5, PS)”, the target mRNA inhibition (HepG2, 5 µM) is 27%.

On to “ACAGTGTTTAATGTTTA (sugars e2 k2 d8 k2 e3, PS)”, for which the target mRNA inhibition (HepG2, 0.1875 µM) was determined as 39%; the target mRNA inhibition (HepG2, 0.75 µM) came to 69%; the target mRNA inhibition (HepG2, 3 µM) amounted to 82%; the target mRNA inhibition (HepG2, 4 µM) was determined as 78%; the target mRNA inhibition (HepG2, 5 µM) was determined as 83%; the target mRNA inhibition (HepG2, 12 µM) was 84% and 86%.

Take “CCCCACACCTTCACTG (sugars ekddddddddekekee, linkages s1 o1 s8 o3 s2)”: the target mRNA inhibition is, setting by setting: (A431, 0.12 µM) 0%; (A431, 0.6 µM) 0%; (A431, 3 µM) 0%; (A431, 15 µM) 0%; (HepG2, 0.222 µM) 21%; (HepG2, 0.667 µM) 36%. This sequence also displayed a target mRNA inhibition (HepG2, 2 µM) of 60% and a target mRNA inhibition (HepG2, 6 µM) of 75%.
